Converted amounts (≈) assume the structure as drawn.
Assays:
[1] = test system: P388 mouse leukemia cells; assay: P338 (P388) Mouse Leukemia Cell Assay, in vitro; assay type: cell-based; conditions: 48 hours
Protocol: (§1) The following assay methods are utilized to evaluate the antitumor activity of the alkaloid compounds of the invention.
P338 Mouse Leukemia Cell Assay
(§2) Maintenance of Cell Lines
P338 mouse leukemis cells are grown in Dulbecco MEM medium with 10% horse serum, 4 mM glutamine, and 20 ug/ml gentamycin (Biologos, Inc.). Cells are incubated in humidified air containing 10% CO2 at 37° C. and subcultured 2 time per week.
1. Add compound to each well of a 24-well plate to tube and allow solvent to evaporate to dryness.
2. Add 2 ml (1.2×10^5) cells to each well or tube and mix.
3. Incubate in 10% CO2 at 37° C. for 48 hours.
4. Read plates with an inverted microscope, scoring activity from 1+ to 4+ as follows: ND (not detectable), 90% 1+, 75-90% 2+, 50-74% 3+, 25-49% 4+, 25% of control growth.
Alternatively, the activity may be designated as IC50 concentration which is the concentration of compound required to inhibit 50% of cell growth on the plate.
Cell counts are performed on each tube and results are reported as percent of control.

Mouse P388 = Mouse P388 in vivo antitumor activity (T/C); conditions: Mouse P388, at 5 mg/kg
[2] = test system: HCT-8 human colon tumor cells; assay: Human Tumor Cell Line Assay, HCT-8; assay type: cell-based; conditions: 120 hours, read-out: HCT-8 activity score (cell density vs control)
Protocol: as §1
(§3) Human Tumor Cell Line Assay
as §2
(§4) HCT-8 human colon tumor cells are grown in RPMI 1640 medium. A-549 human lung carcinoma cells are grown in Dublecco MEM medium. T-47D human breast cancer cells are cultured in Eagles MEM medium. All media (Biologos, Inc.) are supplemented with 10% fetal bovine serum and contain 50 ug/ml gentamicin. All humand tumor cell lines are incubated in humidified air containing 5% CO2 at 37° C. and subcultured once a week. The seeding levels are 200,000 T-47D cells, 60,000 HCT-8 cells and 300,000 A-549 cells per T-25 Flask. Vinblastine is used as a positive control.
(§5) 2. Incubate is a CO2 incubator for 48 hours.
(§6) 3. Add compound to each well and incubate for an additional 120 hours.
(§7) 4. Discard medium and stain with methylene blue (HCT-8) or crystal violet (A-549 and T-47D).
(§8) 5. Compare cell density of compound-treated with that of the control (no compound added) as follows: ND (not detectable), 90% 1+, 75-90% 2+, 50-74% 3+, 25-49% 4+, 25% of control growth.
(§9) The positive control is Vinblastine in aqueous solution at the following concentrations: […]

[3] = test system: A-549 human lung carcinoma cells; assay: Human Tumor Cell Line Assay, A-549; assay type: cell-based; conditions: 120 hours, read-out: A-549 activity score (cell density vs control)
Protocol: as §1, §3, §2, §4, §5, §6, §7, §8, §9

[4] = test system: T-47D human breast cancer cells; assay: Human Tumor Cell Line Assay, T-47D; assay type: cell-based; conditions: T47D, 120 hours, read-out: T-47D activity score (cell density vs control)
Protocol: as §1, §3, §2, §4, §5, §6, §7, §8, §9

[5] = Immunomodulatory activity, two-way mixed lymphocyte reaction assay (% LCV); assay type: cell-based, murine; conditions: mouse, lymphocytes
Source text: This example concerns immunomodulatory activity of compounds of the invention on murine derived, two-way mixed lymphocyte reaction assay.

CN(C)CCc1c2ncsc2c2c3c(c4ccccc4nc13)C=CN2C [Dercitin 1, dercitin 1]
IC50 [1]: 0.05 µg/mL (≈ 0.139 µM)
in vivo T/C (Mouse P388): 170%
activity at 0.01 µg/mL ([2]; 0.01 ug/ml): > 90%
activity at 0.1 µg/mL ([2]; 0.1 ug/ml): < 25%
activity at 1 µg/mL ([2]; 1 ug/ml): < 25%
activity at 2 µg/mL ([2]; 2 ug/ml): < 25%
activity at 0.01 µg/mL ([3]; A549, 0.01 ug/ml): > 90%
activity at 0.1 µg/mL ([3]; A549, 0.1 ug/ml): < 25%
activity at 1 µg/mL ([3]; A549, 1 ug/ml): < 25%
activity at 2 µg/mL ([3]; A549, 2 ug/ml): < 25%
activity at 0.01 µg/mL ([4]; 0.01 ug/ml): > 90%
activity at 0.1 µg/mL ([4]; 0.1 ug/ml): < 25%
activity at 1 µg/mL ([4]; 1 ug/ml): < 25%
activity at 2 µg/mL ([4]; 2 ug/ml): < 25%
viability ([5]; 0.01 ug/well): 56%
viability ([5]; 0.1 ug/well): 48%
viability ([5]; 1.0 ug/well): 46%
viability ([5]; 10.0 ug/well): 67%

CN(C)CCc1c2c3c(c4scnc14)N(C)CCC3c1ccccc1N2 (stereo not shown) [Tetrahydrodercitin 1, tetrahydrodercitin 1]
viability ([5]; 0.01 ug/well): 100%
viability ([5]; 0.1 ug/well): 91%
viability ([5]; 1.0 ug/well): 49%
viability ([5]; 10.0 ug/well): 41%

Reference: patent US4868191A, “Alkaloid compounds, and pharmaceutical compositions containing them” (Harbor Branch Oceanographic Institution, Inc., priority 1988, dated 1989)
